From article PMC7297445, “Pharmacokinetic/Pharmacodynamic Determination and Preclinical Pharmacokinetics of the β-Lactamase Inhibitor ETX1317 and Its Orally Available Prodrug ETX0282” (ACS Infectious Diseases, 2020)
Like-named read-outs stand apart in the source and are kept apart here.

Columns and labels:
[1] = Mouse oral pharmacokinetics (satellite infected animals); format: in vivo
[2] = Intravenous pharmacokinetics of ETX1317; format: in vivo, monkey
Experimental: Intravenous pharmacokinetics of ETX1317 investigated in jugular vein cannulated male Sprague–Dawley rats (Charles River Laboratories, n = 3/route) at a dose of 10 mg/kg formulated in 0.9% saline. Oral pharmacokinetics of ETX0282 was evaluated at a 10 mg/kg equivalent dose of ETX1317 formulated in 25:75 PEG 400:WFI. The pH of each formulation was verified to fall within a range of 4–7 and were confirmed to be in solution prior to dosing. Potency was verified by LC/MS/MS. Dose volumes were 5 and 10 mL/kg for ETX1317(i.v.) and ETX0282(p.o.), respectively for rats. In both dog (male, 3/route) and monkey (male, 3/route) studies, i.v. and p.o. doses were formulated on 25:75 PEG 400:WFI (pH ∼5) and administered at a dose of ∼1 mg/kg. Dose volume was 1 mL/kg for both routes in dogs and monkeys with the i.v. dose infused over 15 min. For oral doses, gavage tubes were flushed with 10 mL after administration of the dose. i.v. doses were sterile-filtered through 0.22 μm PVDF membrane prior to administration into the cephalic vein.
Blood sampling (∼1 mL) for dogs and monkeys was carried out via venipuncture of the jugular vein at the following time points:
i.v.: pre-dose, 0.083, 0.25 (prior to end of infusion), 0.5, 1, 1.5, 2, 4, 6, 8, 12, and 24 h post-dose
Blood samples were centrifuged at 3200 rpm for 10 min at approximately 5 °C. Plasma samples (500 μL) were transferred to 96-well plate tubes (MatrixTech, 0.5 mL). An equal amount (500 μL) of SIGMAFAST protease inhibitor solution (1 tablet dissolved in 10 mL distilled water, Sigma-Aldrich Part No. S8820) was added as a preservative to the 96-well plate tubes resulting in a 1:1 dilution. Diluted plasma samples were stored at −80 ± 10 °C.
Urine collection was collected directly into Nalgene bottles placed under metabolism cages with frozen ice packs to chill urine over the collection interval. Urine was collected 0–12, and 12–24 h post-dose. Following collection of each urine sample, the total urine weight was recorded and 3 mL aliquots were retained for LC/MS/MS analysis.
Non-compartmental analysis of time vs concentration data for ETX1317, ETX0282, CPD, and CPDP was completed using WinNonlin 8.1 (Pharsite Corporation, Mountain View CA). The maximum concentration (Cmax) was the highest observed concentration; Tmax was the earliest time at which Cmax occurred; and the elimination half-life was estimated as ln 2/kel, where kel is the elimination rate constant derived from the slope of the log concentration versus time profile. The area under the concentration–time curve from 0 h to the last time point (AUC0-tlast) was calculated by linear trapezoidal approximation. Clearance (CL) was estimated as Dose/AUC0-tlast and the steady state volume of distribution (Vd,ss) was estimated as CL* MRT, where MRT = AUMC/AUC (MRT = mean residence time and AUMC = area under the moment curve). Oral bioavailability (F) was determined from ETX1317 concentrations and normalizing doses to free acid equivalence, where F = AUCp.o.*(dosei.v.)/AUCi.v.*(dosep.o.).

[3] = unbound ETX1317 after oral ETX0282 10 mg/kg
[4] = unbound ETX1317 after oral ETX0282 50 mg/kg
[5] = unbound ETX1317 after oral ETX0282 200 mg/kg
[6] = unbound ETX1317 after oral ETX0282 400 mg/kg
[7] = male, monkey, plasma, iv, i.v. 0.87 mg/kg

With CC1=C[C@@H](C(N)=O)N2C[C@@H]1N(O[C@H](F)C(=O)O)C2=O [ETX1317] the half-life ([1]; mouse, in vivo, mice, once formed from ETX0282) was 1.3 h, the “%Time > f[CT] 0.25 μg/mL” value ([1]; oral ETX0282 10 mg/kg) was 47% and the “%Time > f[CT] 0.5 μg/mL” value ([1]; oral ETX0282 10 mg/kg) was 25%. The “%Time > f[CT] 1.0 μg/mL” value ([1]; oral ETX0282 10 mg/kg) was 12%, the “%Time > f[CT] 2.0 μg/mL” value ([1]; oral ETX0282 10 mg/kg) was 8% and the “%Time > f[CT] 0.25 μg/mL” value ([1]; oral ETX0282 50 mg/kg) was 88%. For the same compound, the “%Time > f[CT] 0.5 μg/mL” value ([1]; oral ETX0282 50 mg/kg) was 50%, the “%Time > f[CT] 1.0 μg/mL” value ([1]; oral ETX0282 50 mg/kg) was 29% and the “%Time > f[CT] 2.0 μg/mL” value ([1]; oral ETX0282 50 mg/kg) was 28%. For the same compound, the “%Time > f[CT] 0.25 μg/mL” value ([1]; oral ETX0282 200 mg/kg) was 100%, the “%Time > f[CT] 0.5 μg/mL” value ([1]; oral ETX0282 200 mg/kg) was 100% and the “%Time > f[CT] 1.0 μg/mL” value ([1]; oral ETX0282 200 mg/kg) was 58%. For the same compound, the “%Time > f[CT] 2.0 μg/mL” value ([1]; oral ETX0282 200 mg/kg) was 35%, the “%Time > f[CT] 0.25 μg/mL” value ([1]; oral ETX0282 400 mg/kg) was 100% and the “%Time > f[CT] 0.5 μg/mL” value ([1]; oral ETX0282 400 mg/kg) was 100%. The “%Time > f[CT] 1.0 μg/mL” value ([1]; oral ETX0282 400 mg/kg) was 75%, the “%Time > f[CT] 2.0 μg/mL” value ([1]; oral ETX0282 400 mg/kg) was 38% and the fAUClast [1, 3] was 4700 ng·h/mL. It also gave a fCmax [1, 3] of 3.9 µg/mL, a fAUClast [1, 4] of 23000 ng·h/mL and a fCmax [1, 4] of 21 µg/mL. It also gave a fAUClast [1, 5] of 61000 ng·h/mL, a fCmax [1, 5] of 57 µg/mL and a fAUClast [1, 6] of 73000 ng·h/mL. For the same compound, the fCmax [1, 6] was 90 µg/mL, the “renal clearance as % of total clearance” value ([2]; based upon excretion in the urine, range 23–63%) was roughly 40% and the AUC [2, 7] was 2680 ± 210 ng·h/mL. For the same compound, the Cmax [2, 7] was 3120 ± 230 ng/mL, the half-life [2, 7] was 1.1 ± 0.1 h and the clearance ([2]; male, monkey, plasma, iv, i.v. 0.87 mg/kg, read-out: CL) was 5.7 ± 0.7 mL/min/kg. It also gave a Vd ([2]; male, monkey, plasma, iv, i.v. 0.87 mg/kg, read-out: Vd,ss) of 0.31 ± 0.02 L/kg and a clearance ([2]; male, monkey, urine and plasma, iv, i.v. 0.87 mg/kg, read-out: renal CL) of 2.2 mL/min/kg.
